Read-outs that look alike come from different tables or passages of the source. *1 amine or outer side, *2 acyl side, *3 side chain or, on linkers, in order; H or OH if unused. Where a SMILES comes first, the peptide text is derived from it. Side-chain parts run from the residue outwards. [ ]: non-standard residue; d: D form. The star is where a group is joined. Nonadecanoyl(19-PO3H2) = O=C(CCCCCCCCCCCCCCCCCCP(=O)(O)O)*; γGlu = O=C(O)[C@H](CCC(=O)[*:2])N[*:1]; AEEA = NCCOCCOCC(=O)O; Aib = CC(C)(N)C(=O)O
How the values were obtained:
[1] = design: species or system cynomolgus monkeys; conditions: cynomolgus monkey, in vivo, sc, 0.2 mg/kg
Experimental: Subcutaneous (SC) dosing of the compounds in a vehicle of 0.1% bovine serum albumin in phosphate buffered saline solution was performed with male cynomolgus monkeys. […] Samples were obtained at 1, 4, 8, 12, 24, 48, 72, 96, 120, 168, 192, 240 and 336 hours after the single dose was administered.

[2] = target: T1, human recombinant GIP receptor (Homo sapiens, UniProt P48546); experiment: TagLite binding assay, GIP receptor, without and with 2% HSA
T1 sequence (P48546 22-466): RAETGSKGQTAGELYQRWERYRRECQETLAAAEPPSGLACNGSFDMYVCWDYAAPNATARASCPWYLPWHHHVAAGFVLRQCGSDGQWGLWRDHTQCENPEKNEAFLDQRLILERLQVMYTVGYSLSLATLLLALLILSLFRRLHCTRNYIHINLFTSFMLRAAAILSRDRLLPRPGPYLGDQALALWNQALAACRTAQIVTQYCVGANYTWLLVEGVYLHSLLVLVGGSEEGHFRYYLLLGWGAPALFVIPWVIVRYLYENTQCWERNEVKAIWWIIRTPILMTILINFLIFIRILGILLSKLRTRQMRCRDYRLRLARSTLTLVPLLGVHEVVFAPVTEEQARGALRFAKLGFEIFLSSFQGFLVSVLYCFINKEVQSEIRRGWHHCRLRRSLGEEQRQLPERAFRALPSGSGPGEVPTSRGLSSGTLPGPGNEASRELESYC
Excerpt: (§1) Binding data for Compounds 15-25, for two human recombinant G protein coupled receptors, GLP-1 and GIP, was obtained using […]® binding assay and Epics Therapeutics cell lines. The binding assay was repeated in the presence of 2% human serum albumin (HSA). Compounds 16, 21, and 22 have an HSA ratio for the GLP-1 receptor of 7.1, 7.6, and 7.8, respectively. Compounds 15, 18, and 23 have an HSA ratio for the GIP receptor of 7.3, 4.3, and 6.4, respectively. A lower HSA ratio indicates greater binding affinity for the receptor than for albumin when compared to a compound with a greater HSA ratio.

[3] = target: human recombinant GLP-1 receptor (Homo sapiens, UniProt P43220); experiment: TagLite binding assay, GLP-1 receptor, without and with 2% HSA
Chain of human recombinant GLP-1 receptor (P43220 24-463): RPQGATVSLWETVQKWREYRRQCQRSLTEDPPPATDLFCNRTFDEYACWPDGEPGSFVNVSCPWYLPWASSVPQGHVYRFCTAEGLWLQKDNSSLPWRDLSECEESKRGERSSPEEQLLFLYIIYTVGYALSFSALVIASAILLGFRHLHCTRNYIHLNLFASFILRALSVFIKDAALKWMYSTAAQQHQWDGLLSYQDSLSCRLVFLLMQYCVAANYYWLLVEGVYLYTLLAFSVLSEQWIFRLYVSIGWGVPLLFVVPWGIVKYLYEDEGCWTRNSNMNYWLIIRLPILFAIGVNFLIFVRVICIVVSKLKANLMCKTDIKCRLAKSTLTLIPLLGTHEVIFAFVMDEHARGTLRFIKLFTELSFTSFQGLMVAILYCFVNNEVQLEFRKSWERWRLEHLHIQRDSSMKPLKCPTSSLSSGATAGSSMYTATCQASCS
Excerpt: as §1

[4] = 2% human serum albumin, read-out: GIP receptor IC50 2% HSA
[5] = no HSA, read-out: GIP receptor IC50 No HSA
[6] = 2% human serum albumin, read-out: GLP-1 receptor IC50 2% HSA
[7] = no HSA, read-out: GLP-1 receptor IC50 No HSA

SMILES	AUC(0-inf) [1]	AUC(0-t) [1]	Cmax [1]	Tmax [1]	half-life [1]	mean half life longer compared to tirzepatide [1]	IC50 [2, 4]	IC50 [2, 5]	IC50 [3, 6]	IC50 [3, 7]	mean half life as compared to tirzepatide (in words) [1]
CC[C@H](C)[C@H](NC(=O)[C@H](CCCCN)NC(=O)[C@H](CC(=O)O)NC(=O)[C@H](CC(C)C)NC(=O)[C@H](Cc1ccccc1)NC(=O)[C@@H](NC(=O)[C@H](CO)NC(=O)[C@H](Cc1ccc(O)cc1)NC(=O)[C@H](CC(=O)O)NC(=O)[C@H](CO)NC(=O)[C@@H](NC(=O)[C@H](Cc1ccccc1)NC(=O)[C@@H](NC(=O)CNC(=O)[C@H](CCC(=O)O)NC(=O)C(C)(C)NC(=O)[C@@H](N)Cc1ccc(O)cc1)[C@@H](C)O)[C@@H](C)O)[C@@H](C)CC)C(=O)N[C@@H](C)C(=O)N[C@@H](CCC(N)=O)C(=O)N[C@@H](CCCCNC(=O)COCCOCCNC(=O)COCCOCCNC(=O)CC[C@H](NC(=O)CCCCCCCCCCCCCCCCCCP(=O)(O)O)C(=O)O)C(=O)N[C@@H](C)C(=O)N[C@@H](Cc1ccccc1)C(=O)N[C@H](C(=O)N[C@@H](CC(N)=O)C(=O)N[C@@H](Cc1c[nH]c2ccccc12)C(=O)N[C@@H](CC(C)C)C(=O)N[C@H](C(=O)N[C@@H](C)C(=O)NCC(=O)NCC(=O)N1CCC[C@H]1C(=O)N[C@@H](CO)C(=O)N[C@@H](CO)C(=O)NCC(=O)N[C@@H](C)C(=O)N1CCC[C@H]1C(=O)N1CCC[C@H]1C(=O)N1CCC[C@H]1C(=O)N[C@@H](CO)C(N)=O)[C@@H](C)CC)C(C)C [Compound 21] (H-Y[Aib]EGTFTSDYSIFLDKIAQK([AEEA-AEEA-γGlu-Nonadecanoyl(19-PO3H2)])AFVNWLIAGGPSSGAPPPS-NH2)	54 µg·h/mL	49.4 µg·h/mL	339 ng/mL	48 h	90.5 h	at least 50%	5280 nM	561 nM	1100 nM	144 nM	
CC[C@H](C)[C@H](NC(=O)[C@H](CCCCN)NC(=O)[C@H](CC(=O)O)NC(=O)[C@H](CC(C)C)NC(=O)C(C)(C)NC(=O)[C@@H](NC(=O)[C@H](CO)NC(=O)[C@H](Cc1ccc(O)cc1)NC(=O)[C@H](CC(=O)O)NC(=O)[C@H](CO)NC(=O)[C@@H](NC(=O)[C@H](Cc1ccccc1)NC(=O)[C@@H](NC(=O)CNC(=O)[C@H](CCC(=O)O)NC(=O)C(C)(C)NC(=O)[C@@H](N)Cc1ccc(O)cc1)[C@@H](C)O)[C@@H](C)O)[C@@H](C)CC)C(=O)N[C@@H](C)C(=O)N[C@@H](CCC(N)=O)C(=O)N[C@@H](CCCCNC(=O)COCCOCCNC(=O)COCCOCCNC(=O)CC[C@H](NC(=O)CCCCCCCCCCCCCCCCCCP(=O)(O)O)C(=O)O)C(=O)N[C@@H](C)C(=O)N[C@@H](Cc1ccccc1)C(=O)N[C@H](C(=O)N[C@@H](CCC(N)=O)C(=O)N[C@@H](Cc1c[nH]c2ccccc12)C(=O)N[C@@H](CC(C)C)C(=O)N[C@H](C(=O)N[C@@H](CCCNC(=N)N)C(=O)NCC(=O)NCC(=O)N1CCC[C@H]1C(=O)N[C@@H](CO)C(=O)N[C@@H](CO)C(=O)NCC(=O)N[C@@H](C)C(=O)N1CCC[C@H]1C(=O)N1CCC[C@H]1C(=O)N1CCC[C@H]1C(=O)N[C@@H](CO)C(N)=O)[C@@H](C)CC)C(C)C [Compound 20] (H-Y[Aib]EGTFTSDYSI[Aib]LDKIAQK([AEEA-AEEA-γGlu-Nonadecanoyl(19-PO3H2)])AFVQWLIRGGPSSGAPPPS-NH2)	417 µg·h/mL	342 µg·h/mL	2060 ng/mL	13.3 h	132 h	at least 50%	4420 nM	492 nM	2050 nM	226 nM	more than twice an long as compared to tirzepatide
CC[C@H](C)[C@H](NC(=O)[C@H](CC(C)C)NC(=O)[C@H](Cc1c[nH]c2ccccc12)NC(=O)[C@H](CCC(N)=O)NC(=O)[C@@H](NC(=O)[C@H](Cc1ccccc1)NC(=O)[C@H](C)NC(=O)[C@H](CCC(N)=O)NC(=O)[C@H](CCC(N)=O)NC(=O)[C@H](C)NC(=O)[C@@H](NC(=O)[C@H](CCCCNC(=O)COCCOCCNC(=O)COCCOCCNC(=O)CC[C@H](NC(=O)CCCCCCCCCCCCCCCCCCP(=O)(O)O)C(=O)O)NC(=O)[C@H](CC(=O)O)NC(=O)[C@H](CC(C)C)NC(=O)C(C)(C)NC(=O)[C@@H](NC(=O)[C@H](CO)NC(=O)[C@H](Cc1ccc(O)cc1)NC(=O)[C@H](CC(=O)O)NC(=O)[C@H](CO)NC(=O)[C@@H](NC(=O)[C@H](Cc1ccccc1)NC(=O)[C@@H](NC(=O)CNC(=O)[C@H](CCC(=O)O)NC(=O)C(C)(C)NC(=O)[C@@H](N)Cc1ccc(O)cc1)[C@@H](C)O)[C@@H](C)O)[C@@H](C)CC)[C@@H](C)CC)C(C)C)C(=O)N[C@@H](C)C(=O)NCC(=O)NCC(=O)N1CCC[C@H]1C(=O)N[C@@H](CO)C(=O)N[C@@H](CO)C(=O)NCC(=O)N[C@@H](C)C(=O)N1CCC[C@H]1C(=O)N1CCC[C@H]1C(=O)N1CCC[C@H]1C(=O)N[C@@H](CO)C(N)=O [Compound 15] (H-Y[Aib]EGTFTSDYSI[Aib]LDK([AEEA-AEEA-γGlu-Nonadecanoyl(19-PO3H2)])IAQQAFVQWLIAGGPSSGAPPPS-NH2)	185 µg·h/mL	182 µg·h/mL	2520 ng/mL	9.33 h	60 h		807 nM	110 nM	3830 nM	347 nM	

— US12421282B2, “Compositions and methods for the treatment of metabolic and liver disorders” (priority 2021, dated 2025)
